Results published in patent publication US20200068891A1, “Synergetic Biocidal Compositions Comprising 5-Chlorine-2-Methylisothiazolin-3-One” (priority 2017, published 2020).

Tests used:
[1] = test system: Yarrowia lipolytica (DSM 32369); assay: Synergy test: minimum inhibitory concentrations in microtiter plates, Yarrowia lipolytica in Sabouraud Maltose broth; details: 48 hours at 25° C.; for Synergy index Qa/QA + Qb/QB: below 1 = synergism; for Qa (CMIT) / Qa (CMIT): concentration of CMIT indicating an end point: as sole agent (QA) where Qb is 0
Description: The test organisms used were the Gram-negative bacterium Pseudomonas putida (DSM 25068) and the yeast fungus Yarrowia lipolytica (DSM 32369). For this, mixtures with different concentrations of the particular active substances were prepared and tested in regard to their effect on Pseudomonas putida and Yarrowia lipolytica. The testing was done in Milller-Hinton broth MHB (in the case of Pseudomonas) or Sabouraud Maltose broth SMB (in the case of Yarrowia) with a cell density of 10^6 germs per ml.
The incubation time of the microtiter plates was 48 hours at 30° C. (Pseudomonas) or 25° C. (Yarrowia). After 48 hours the batches were evaluated for turbidity due to growth and, in addition, the optical density was determined by photometry. In this way, the minimum inhibitory concentrations (MHK) were determined for the two active substances individually and in combination.
The resulting synergism was represented numerically by calculating the synergy index (SI). […] There, the SI is calculated by the following formula: synergy index SI =Qa/QA +Qb/QB
Qa =concentration of component A in the mixture A+B
Qb =concentration of component B in the mixture A+B
If the synergy index has a value over 1, this means that an antagonism is present. If the synergy index takes on the value 1, this means that an addition of the effect of the two biocides/compounds is present. If the synergy index takes on a value below 1, this means that a synergism exists for the two biocides. If the synergy index has a value of more than 1, this means that an antagonism exists.

[2] = test system: Pseudomonas putida (DSM 25068); assay: Synergy test: minimum inhibitory concentrations in microtiter plates, Pseudomonas putida in Mueller-Hinton broth; type: cell-based; details: 48 hours at 30° C.; for Synergy index Qa/QA + Qb/QB: below 1 = synergism; for Qa (CMIT): concentration of CMIT indicating an end point / Qa (CIT): concentration of CMIT indicating an end point: as sole agent (QA) where Qb is 0
Description: (Pseudomonas) or 25° C. (Yarrowia).
Kull et al., Applied Microbiology, Vol. 9 (1961), p. 538.
QA =concentration of component A as sole biocide
QB =concentration of component B as sole biocide

[3] = in the mixture with CMIT, as sole agent (QB) where Qa is 0

O=C(O)c1ccccc1 [benzoic acid]
Qb (benzoic acid): concentration of benzoic acid indicating an end point [1, 3]: 2500 ppm

O=C(O)c1ccccc1O [salicylic acid]
Synergy index Qa/QA + Qb/QB ([1]; CMIT and salicylic acid): 1.00
Qb (salicylic acid): concentration of salicylic acid indicating an end point [1, 3]: 3000 ppm

OCCc1ccccc1 [phenetyl alcohol]
Synergy index Qa/QA + Qb/QB ([2]; CMIT and phenetyl alcohol): 1.00
Qb (phenetyl alcohol): concentration of phenetyl alcohol indicating an end point [2, 3]: 3000 ppm

CCCCNC(=O)OCC#CI [IPBC, 3-iodo-2-propynyl butylcarbamate]
Synergy index Qa/QA + Qb/QB ([2]; CMIT and IPBC): 1.00
Qb (IPBC): concentration of IPBC indicating an end point [2, 3]: 1000 ppm
Synergy index Qa/QA + Qb/QB ([1]; CMIT and IPBC): 1.00
Qb (IPBC): concentration of IPBC indicating an end point [1, 3]: 2.50 ppm

C/C=C/C=C/C(=O)O [sorbic acid]
Synergy index Qa/QA + Qb/QB ([1]; CMIT and sorbic acid): 1.00
Qb (sorbic acid): concentration of sorbic acid indicating an end point [1, 3]: 750 ppm

CCCCCCCCCC[N+](C)(C)CCCCCCCCCC.[Cl-] [DDAC, didecyldimethylammonium chloride]
Synergy index Qa/QA + Qb/QB ([2]; CMIT and DDAC): 1.00
Qb (DDAC): concentration of DDAC indicating an end point [2, 3]: 7.5 ppm

C=O [HCHO, formaldehyde]
Synergy index Qa/QA + Qb/QB ([2]; CMIT and HCHO): 1.00
Qb (HCHO): concentration of HCHO indicating an end point [2, 3]: 500 ppm

CC(=O)C1C(=O)C=C(C)OC1=O (centres unmarked) [dehydracetic acid]
Synergy index Qa/QA + Qb/QB ([1]; CMIT and dehydracetic acid): 1.00
Qb (dehydracetic acid): concentration of dehydracetic acid indicating an end point [1, 3]: 200 ppm

CCOC(=O)c1ccc(O)cc1 [ethylparaben]
Synergy index Qa/QA + Qb/QB ([2]; CMIT and ethylparaben): 1.00
Qb (ethylparaben): concentration of ethylparaben indicating an end point [2, 3]: 1500 ppm

CCCCCCCCn1sccc1=O [OIT, octylisothiazolinone]
Synergy index Qa/QA + Qb/QB ([2]; CMIT and OIT): 1.00
Qb (OIT): concentration of OIT indicating an end point [2, 3]: 300 ppm
Synergy index Qa/QA + Qb/QB ([1]; CMIT and OIT): 1.00
Qb (OIT): concentration of OIT indicating an end point [1, 3]: 2.00 ppm

CC(O)(P(=O)(O)O)P(=O)(O)O [HEDP, (1-hydroxyethylidene)bis-phosphonic acid]
Synergy index Qa/QA + Qb/QB ([2]; CMIT and HEDP): 1.00
Qb (HEDP): concentration of HEDP indicating an end point [2, 3]: 250 ppm

benzalkonium chloride [BAC]
Synergy index Qa/QA + Qb/QB ([2]; CMIT and BAC): 1.00
Qb (BAC): concentration of BAC indicating an end point [2, 3]: 30 ppm

O=CCCCC=O [GDA, glutardialdehyde]
Synergy index Qa/QA + Qb/QB ([2]; CMIT and GDA): 1.00
Qb (GDA): concentration of GDA indicating an end point [2, 3]: 500 ppm

COC(=O)c1ccc(O)cc1 [methylparaben]
Synergy index Qa/QA + Qb/QB ([2]; CMIT and methylparaben): 1.00
Qb (methylparaben): concentration of methylparaben indicating an end point [2, 3]: 2000 ppm

Cn1sc(Cl)cc1=O [CMIT, 5-chloro-2-methylisothiazolin-3-one]
Synergy index Qa/QA + Qb/QB ([2]; CMIT and BAC): 1.00
Synergy index Qa/QA + Qb/QB ([2]; CMIT and BBIT): 1.00
Synergy index Qa/QA + Qb/QB ([2]; CMIT and DDAC): 1.00
Synergy index Qa/QA + Qb/QB ([2]; CMIT and EDDS): 1.00
Synergy index Qa/QA + Qb/QB ([2]; CMIT and GDA): 1.00
Synergy index Qa/QA + Qb/QB ([2]; CMIT and HCHO): 1.00
Synergy index Qa/QA + Qb/QB ([2]; CMIT and HEDP): 1.00
Synergy index Qa/QA + Qb/QB ([2]; CMIT and IPBC): 1.00
Synergy index Qa/QA + Qb/QB ([2]; CMIT and OIT): 1.00
Synergy index Qa/QA + Qb/QB ([2]; CMIT and PASP Na salt): 1.00
Synergy index Qa/QA + Qb/QB ([2]; CMIT and ethylparaben): 1.00
Synergy index Qa/QA + Qb/QB ([2]; CMIT and methylparaben): 1.00
Synergy index Qa/QA + Qb/QB ([2]; CMIT and phenetyl alcohol): 1.00
Qa (CMIT): concentration of CMIT indicating an end point ([2]; in the mixture with BAC): 2 ppm
Qa (CIT): concentration of CMIT indicating an end point ([2]; in the mixture with BBIT): 2 ppm
Qa (CMIT): concentration of CMIT indicating an end point ([2]; in the mixture with DDAC): 2 ppm
Qa (CMIT): concentration of CMIT indicating an end point ([2]; in the mixture with EDDS): 2 ppm
Qa (CMIT): concentration of CMIT indicating an end point ([2]; in the mixture with GDA): 2 ppm
Qa (CMIT): concentration of CMIT indicating an end point ([2]; in the mixture with HCHO): 2 ppm
Qa (CMIT): concentration of CMIT indicating an end point ([2]; in the mixture with HEDP): 2 ppm
Qa (CIT): concentration of CMIT indicating an end point ([2]; in the mixture with IPBC): 2 ppm
Qa (CIT): concentration of CMIT indicating an end point ([2]; in the mixture with OIT): 2 ppm
Qa (CMIT): concentration of CMIT indicating an end point ([2]; in the mixture with PASP Na salt): 2 ppm
Qa (CMIT): concentration of CMIT indicating an end point ([2]; in the mixture with ethylparaben): 2 ppm
Qa (CMIT): concentration of CMIT indicating an end point ([2]; in the mixture with methylparaben): 2 ppm
Qa (CMIT): concentration of CMIT indicating an end point ([2]; in the mixture with phenetyl alcohol): 2 ppm
Synergy index Qa/QA + Qb/QB ([1]; CMIT and BBIT): 1.00
Synergy index Qa/QA + Qb/QB ([1]; CMIT and IPBC): 1.00
Synergy index Qa/QA + Qb/QB ([1]; CMIT and OIT): 1.00
Synergy index Qa/QA + Qb/QB ([1]; CMIT and dehydracetic acid): 1.00
Synergy index Qa/QA + Qb/QB ([1]; CMIT and salicylic acid): 1.00
Synergy index Qa/QA + Qb/QB ([1]; CMIT and sorbic acid): 1.00
Qa (CMIT) ([1]; in the mixture with BBIT): 2.50 ppm
Qa (CMIT) ([1]; in the mixture with IPBC): 2.50 ppm
Qa (CMIT) ([1]; in the mixture with OIT): 2.50 ppm
Qa (CMIT): concentration of CMIT indicating an end point ([1]; in the mixture with benzoic acid): 2.5 ppm
Qa (CMIT): concentration of CMIT indicating an end point ([1]; in the mixture with dehydracetic acid): 2.5 ppm
Qa (CMIT): concentration of CMIT indicating an end point ([1]; in the mixture with salicylic acid): 2.5 ppm
Qa (CMIT): concentration of CMIT indicating an end point ([1]; in the mixture with sorbic acid): 2.5 ppm

CCCCn1sc2ccccc2c1=O [BBIT, N-butyl-benzisothiazolinone]
Synergy index Qa/QA + Qb/QB ([2]; CMIT and BBIT): 1.00
Qb (BBIT): concentration of BBIT indicating an end point [2, 3]: 20 ppm
Synergy index Qa/QA + Qb/QB ([1]; CMIT and BBIT): 1.00
Qb (BBIT): concentration of BBIT indicating an end point [1, 3]: 3.00 ppm
